In patent US20260138970A1, “MODULATORS OF THE CALCIUM SIGNALING CASCADE” (FONDAZIONE TELETHON ETS, priority 2022, published 2026):

How the values were obtained:
ITPR1 = ITPR1 (Homo sapiens, UniProt Q14643); experiment: On-nucleus patch-clamp single-channel recordings, HEKR1 cells expressing ITPR1-EYFP; format: biochemical; set-up: EYFP; expressed in transfected cells; nuclei isolated for on-nucleus patch clamp; settings: 20 μM in pipette solution
Experimental: Nuclear membrane patch currents were recorded in HEKR1 cells stably transfected with a plasmid encoding human ITPR1 tagged with Enhanced Yellow Fluorescent Protein (EYFP) kindly provided by Prof. Colin W. Taylor (University of Cambridge) (17). For nuclei isolation, at least 1,000,000 HEKR1-ITPR1-EYFP cells plated in a 35 mm Petri dish were used following the protocol for patch clamp on the outer nuclear membrane (18,19). Briefly, a Duall homogenizer 20 tube (Kimble Chase 885482-0020) and a tissue grind (Kimble 885480-0020) were used. 20 strokes were applied to cells suspended in NIS-0 solution (25). NIS-O solution consisted of 40 ml of sucrose buffer (150 mM KCl, 250 mM sucrose, 1.4 mM β-mercaptoethanol, 10 mM Tris-HCl; pH 7.3 with KOH) supplemented with one tablet of complete protease inhibitor cocktail (Roche) and 200 μM PMSF.
Borosilicate glass pipettes were pulled on a two-step vertical puller (Narishige) to a final resistance of around 15-20 MO, as measured in the working solution. […]
During experiments, the membrane capacitance was analogically compensated using the circuitry provided by the EPC10 patch-clamp amplifier. […] Data were analysed using the Igor software (WaveMetrics, Lake Oswego, OR, USA) supplemented by custom software kindly provided by Dr. Oscar Moran (Institute of Biophysics, CNR, Genova, Italy).

TMEM16A = experiment: HS-YFP assay in ITPR-defective HEK293 cells transiently transfected with TMEM16A; format: cell-based; settings: UTP 5 μM, compound 10 μM, FIG. 2D
R269W ITPR1 = biological target: T1, R269W ITPR1 (Homo sapiens, UniProt Q14643, R269W); experiment: IP3 uncaging assay, HEK293 cells expressing R269W-ITPR1; format: cell-based; settings: compound 10 μM; tetracycline-treated; FIG. 6D
T1 construct: expressed in transfected cells
Experimental: HEK293 cells stably transfected with tetracycline-inducible expression of wild type or mutant (R269W or T267M) ITPR1, kindly provided by Prof. S. R. Wayne Chen (University of Calgary; ref. 14), were cultured in a mixture of Dulbecco's Modified Eagle Medium (DMEM, high glucose version) and Ham's F12 (1:1) and supplemented with 10% fetal bovine serum, 2 mM L-glutamine, 100 U/ml penicillin and 100 μg/ml streptomycin. Cells were selected with 0.5 mg/ml hygromycin B and induced with 1 μg/ml tetracycline.
FRT and HEK293 cells were cultured in μ-Plate96 microplates (Ibidi) at subconfluent condition. Cells were washed 2 times with PBS (150 μl/wash) and then loaded for 45 min at 37° C. with 1 μM ci-IP3/PM (Tocris; catalog number: 6210/10U) and 5 μM Fluo-4/AM (Thermo Fisher Scientific) in PBS containing 10 mM glucose, 0.5 mM sulfinpyrazone and 1% fetal bovine serum. After 45 min, cells were further incubated for 1 h at 37° C. with a fresh PBS solution containing Fluo-4/AM, glucose, sulfinpyrazone, serum, but no ci-IP3/PM. […] Analysis was performed with MetaFluor software, by quantifying Fluo-4 fluorescence in manually selected single cell region of interest (ROI). […] After background subtraction, fluorescence traces were normalized for the initial value.

Sequence of ITPR1 (Q14643 whole entry): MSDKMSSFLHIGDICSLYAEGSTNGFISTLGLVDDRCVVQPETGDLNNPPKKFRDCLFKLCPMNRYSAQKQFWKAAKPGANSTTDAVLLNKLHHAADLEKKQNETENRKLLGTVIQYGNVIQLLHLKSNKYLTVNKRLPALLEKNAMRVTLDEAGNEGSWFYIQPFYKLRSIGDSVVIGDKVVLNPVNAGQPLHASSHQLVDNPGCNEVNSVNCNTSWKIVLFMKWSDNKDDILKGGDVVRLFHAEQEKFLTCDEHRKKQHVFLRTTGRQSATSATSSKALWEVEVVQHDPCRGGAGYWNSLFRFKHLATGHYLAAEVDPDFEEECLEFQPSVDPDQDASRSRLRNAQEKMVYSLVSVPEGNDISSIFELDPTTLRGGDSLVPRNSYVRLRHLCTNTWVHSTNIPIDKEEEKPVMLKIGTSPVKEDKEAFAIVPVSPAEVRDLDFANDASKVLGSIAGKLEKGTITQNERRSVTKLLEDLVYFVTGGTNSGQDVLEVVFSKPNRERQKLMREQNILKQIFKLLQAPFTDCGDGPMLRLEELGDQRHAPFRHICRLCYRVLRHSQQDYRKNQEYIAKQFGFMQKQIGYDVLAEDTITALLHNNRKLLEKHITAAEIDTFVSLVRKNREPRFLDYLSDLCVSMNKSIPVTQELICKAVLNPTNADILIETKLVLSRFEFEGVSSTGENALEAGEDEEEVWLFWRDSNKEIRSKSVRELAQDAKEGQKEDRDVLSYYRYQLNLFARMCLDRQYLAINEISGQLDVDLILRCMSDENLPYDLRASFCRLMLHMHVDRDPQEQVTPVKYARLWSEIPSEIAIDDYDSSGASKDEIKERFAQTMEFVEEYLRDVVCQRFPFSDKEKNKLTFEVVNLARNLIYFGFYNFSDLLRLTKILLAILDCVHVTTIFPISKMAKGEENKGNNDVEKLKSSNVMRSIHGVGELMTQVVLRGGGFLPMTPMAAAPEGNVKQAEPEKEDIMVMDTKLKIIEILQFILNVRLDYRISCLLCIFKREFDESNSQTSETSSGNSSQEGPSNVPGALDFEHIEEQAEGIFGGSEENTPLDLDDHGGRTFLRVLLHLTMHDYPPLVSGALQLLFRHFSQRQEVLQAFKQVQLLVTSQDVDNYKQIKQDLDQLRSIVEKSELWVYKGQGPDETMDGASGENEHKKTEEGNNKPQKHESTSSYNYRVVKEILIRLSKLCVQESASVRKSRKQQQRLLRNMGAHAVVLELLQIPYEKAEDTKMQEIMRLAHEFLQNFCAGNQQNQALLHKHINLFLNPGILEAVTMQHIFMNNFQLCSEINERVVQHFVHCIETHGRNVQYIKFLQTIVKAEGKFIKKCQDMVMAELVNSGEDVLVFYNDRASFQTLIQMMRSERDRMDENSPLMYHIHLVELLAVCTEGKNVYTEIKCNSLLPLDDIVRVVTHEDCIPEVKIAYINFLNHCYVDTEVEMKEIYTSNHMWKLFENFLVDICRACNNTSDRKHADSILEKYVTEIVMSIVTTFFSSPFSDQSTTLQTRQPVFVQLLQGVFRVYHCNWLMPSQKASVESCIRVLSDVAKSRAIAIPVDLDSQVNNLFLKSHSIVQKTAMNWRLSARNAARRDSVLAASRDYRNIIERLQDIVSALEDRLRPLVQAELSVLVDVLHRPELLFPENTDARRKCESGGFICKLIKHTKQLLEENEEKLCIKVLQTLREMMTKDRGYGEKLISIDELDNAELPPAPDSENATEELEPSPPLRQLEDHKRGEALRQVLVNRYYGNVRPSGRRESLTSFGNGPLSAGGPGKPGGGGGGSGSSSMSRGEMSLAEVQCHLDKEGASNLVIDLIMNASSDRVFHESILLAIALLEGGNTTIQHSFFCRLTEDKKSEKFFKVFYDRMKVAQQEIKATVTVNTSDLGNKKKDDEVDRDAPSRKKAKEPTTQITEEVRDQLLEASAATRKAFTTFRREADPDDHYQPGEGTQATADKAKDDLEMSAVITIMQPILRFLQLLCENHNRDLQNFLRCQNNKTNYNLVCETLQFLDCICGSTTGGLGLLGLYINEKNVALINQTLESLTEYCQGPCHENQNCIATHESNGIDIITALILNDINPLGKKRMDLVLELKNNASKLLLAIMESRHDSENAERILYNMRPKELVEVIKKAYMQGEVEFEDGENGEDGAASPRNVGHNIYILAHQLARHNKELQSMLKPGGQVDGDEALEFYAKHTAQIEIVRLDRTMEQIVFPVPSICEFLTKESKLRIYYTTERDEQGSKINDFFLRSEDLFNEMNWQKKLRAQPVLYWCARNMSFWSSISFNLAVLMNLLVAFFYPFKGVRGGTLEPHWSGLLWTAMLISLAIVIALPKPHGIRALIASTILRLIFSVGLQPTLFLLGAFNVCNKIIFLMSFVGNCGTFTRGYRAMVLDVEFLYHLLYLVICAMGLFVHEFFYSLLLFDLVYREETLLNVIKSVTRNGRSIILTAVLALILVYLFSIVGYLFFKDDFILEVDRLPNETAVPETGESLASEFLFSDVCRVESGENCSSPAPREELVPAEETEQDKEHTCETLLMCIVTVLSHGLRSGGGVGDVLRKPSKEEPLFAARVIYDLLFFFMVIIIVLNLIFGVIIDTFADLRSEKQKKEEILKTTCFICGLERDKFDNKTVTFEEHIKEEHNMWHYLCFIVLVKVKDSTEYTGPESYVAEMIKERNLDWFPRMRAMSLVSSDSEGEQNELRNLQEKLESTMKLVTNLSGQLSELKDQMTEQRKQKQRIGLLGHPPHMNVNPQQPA

## CCn1nc2c(c1C(=O)Nc1ccccc1OCC1CCCCO1)CCCC2 (stereo not shown) [ARN11391, 2-Ethyl-N-[2-(tetrahydropyran-2-ylmethoxy)phenyl]-4,5,6,7-tetrahydroindazole-3-carboxamide]
ITPR1; Vp=+40 mV, FIG. 6A
  open channel probability (Po), average: ~0.2
ITPR1; ~10 pA at +40 mV
  attempts with single channel openings of the expected ITPR1 current amplitude: 5 out of 32
TMEM16A
  activation of TMEM16A by UTP with/without compound (HS-YFP): no activation
R269W ITPR1
  Ca2+ mobilization elicited by IP3 uncaging, R269W-ITPR1: significantly amplified
